Key:
[1] = target: T1, ΔF508-CFTR (Homo sapiens, UniProt P13569, DEL508-508); test: CFTR cell surface levels using HRP-tagged ΔF508-CFTR expressing CFBE cells, intrinsic corrector capacity; assay type: cell-based
T1 construct: host or cells: CFBE41o-, doxycycline-inducible
In short: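 Here the cells express ΔF508-CFTR with horseradish peroxidase inserted in extracellular loop 4, so only rescued channel at the surface gives luminescent signal. Compounds act on their own, 20 h at the reduced temperature of 33 °C; values are percent activity relative to DMSO and a 3 μM corrector.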

[2] = target: T1, ΔF508-CFTR; test: CFTR cell surface levels using HRP-tagged ΔF508-CFTR expressing CFBE cells, in the presence of a co-corrector; assay type: cell-based
In short: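 Cells were seeded with 0.5 μg/mL doxycycline and held 68 h at 37 °C. Test compounds plus 3 μM co-corrector (final 0.1% DMSO) were then added for 20 h at 33 °C. Washed cells received HRP substrate, and luminescence was normalized between DMSO and 3 μM co-corrector controls.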

[3] = HRP-tagged ΔF508-CFTR CFBE41o- cells, compounds alone (intrinsic corrector capacity), 20 hours at 33° C., positive control 3 μM corrector
[4] = HRP-tagged ΔF508-CFTR CFBE41o- cells, compounds alone (intrinsic corrector capacity), 20 hours at 33° C., read-out: EC50
[5] = HRP-tagged ΔF508-CFTR expressing CFBE cells, in the presence of 3 μM co-corrector
[6] = HRP-tagged ΔF508-CFTR expressing CFBE cells, in the presence of 3 μM co-corrector, read-out: EC50
[7] = HRP-tagged ΔF508-CFTR expressing CFBE cells, intrinsic corrector capacity (no co-corrector), 33° C., 20 hours
[8] = HRP-tagged ΔF508-CFTR expressing CFBE cells, intrinsic corrector capacity (no co-corrector), 33° C., 20 hours, read-out: EC50

T1 sequence (P13569 with tags, fused parts or gaps DEL508-508): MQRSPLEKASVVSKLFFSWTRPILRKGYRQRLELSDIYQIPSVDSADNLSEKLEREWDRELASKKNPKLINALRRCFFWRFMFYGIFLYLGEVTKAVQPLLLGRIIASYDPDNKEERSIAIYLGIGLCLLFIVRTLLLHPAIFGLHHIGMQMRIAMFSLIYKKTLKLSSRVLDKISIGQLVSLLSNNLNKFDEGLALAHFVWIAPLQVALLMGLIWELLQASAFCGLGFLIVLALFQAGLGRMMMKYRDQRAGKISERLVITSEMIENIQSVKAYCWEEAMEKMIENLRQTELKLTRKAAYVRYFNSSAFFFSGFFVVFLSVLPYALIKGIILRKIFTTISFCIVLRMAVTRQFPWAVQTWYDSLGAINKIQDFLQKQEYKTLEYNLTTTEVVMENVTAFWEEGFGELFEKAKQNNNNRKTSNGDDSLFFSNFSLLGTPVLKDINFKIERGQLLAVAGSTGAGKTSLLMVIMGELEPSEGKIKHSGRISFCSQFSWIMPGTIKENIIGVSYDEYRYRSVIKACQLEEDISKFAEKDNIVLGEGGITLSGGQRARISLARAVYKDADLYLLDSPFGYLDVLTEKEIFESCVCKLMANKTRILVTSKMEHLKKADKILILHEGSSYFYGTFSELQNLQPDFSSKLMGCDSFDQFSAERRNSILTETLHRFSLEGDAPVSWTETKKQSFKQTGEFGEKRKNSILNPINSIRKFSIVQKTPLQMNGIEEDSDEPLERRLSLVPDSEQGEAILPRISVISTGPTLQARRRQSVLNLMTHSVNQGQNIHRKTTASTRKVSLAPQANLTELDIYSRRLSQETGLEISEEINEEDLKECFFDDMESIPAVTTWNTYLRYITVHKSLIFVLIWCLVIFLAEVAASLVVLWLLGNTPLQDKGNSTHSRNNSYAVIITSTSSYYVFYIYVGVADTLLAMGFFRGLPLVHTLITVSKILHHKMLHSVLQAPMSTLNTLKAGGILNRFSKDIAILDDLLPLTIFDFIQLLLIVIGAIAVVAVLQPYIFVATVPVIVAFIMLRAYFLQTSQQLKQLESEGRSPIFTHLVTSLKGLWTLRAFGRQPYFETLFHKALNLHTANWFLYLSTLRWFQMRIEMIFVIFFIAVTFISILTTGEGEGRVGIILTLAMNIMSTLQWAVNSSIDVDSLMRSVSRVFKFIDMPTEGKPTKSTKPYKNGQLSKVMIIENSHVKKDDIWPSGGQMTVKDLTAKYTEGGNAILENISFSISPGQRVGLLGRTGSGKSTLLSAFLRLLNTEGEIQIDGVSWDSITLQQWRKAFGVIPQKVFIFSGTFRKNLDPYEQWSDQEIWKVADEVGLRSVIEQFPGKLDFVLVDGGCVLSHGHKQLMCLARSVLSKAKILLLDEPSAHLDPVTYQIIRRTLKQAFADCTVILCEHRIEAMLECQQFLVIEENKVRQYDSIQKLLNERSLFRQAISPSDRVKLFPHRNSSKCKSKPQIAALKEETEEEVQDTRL

COC1CCN(c2cc(C(=O)O)nc3c2c(C(C)C)nn3-c2cccc(C)c2)CC1 [compound 192, 4-(4-methoxypiperidin-1-yl)-1-(3-methylphenyl)-3-(propan-2-yl)-1H-pyrazolo[3,4-b]pyridine-6-carboxylic acid] was tested, and the “% Activation” value [1, 3] was 276.92%, the EC50 [1, 4] was 424 nM and the “% Activation” value [2, 5] was 439.45%. It also gave an EC50 [2, 6] of 274 nM.

O=C(O)c1cc(N2CCC3(CC2)CCN(C2CC2)CC3)c2c(C3CCC3)nn(-c3ccc(F)cc3)c2n1 [compound 887, 3-cyclobutyl-4-(9-cyclopropyl-3,9-diazaspiro[5.5]undecan-3-yl)-1-(4-fluorophenyl)-1H-pyrazolo[3,4-b]pyridine-6-carboxylic acid] was tested, and the “% Activation” value [1, 7] was 191.35%, the EC50 [1, 8] was 361 nM and the “% Activation” value [2, 5] was 375.13%. For the same molecule, the EC50 [2, 6] was 204 nM.

For CC(C)c1nn(-c2cccc(N3CCOCC3)c2)c2nc(C(=O)O)cc(-c3ccc(N(C)C)nc3)c12 [compound 89, 4-[6-(dimethylamino)pyridin-3-yl]-1-[3-(morpholin-4-yl)phenyl]-3-(propan-2-yl)-1H-pyrazolo[3,4-b]pyridine-6-carboxylic acid], the “% Activation” value [1, 3] was 310.15%, the EC50 [1, 4] was 2530 nM and the “% Activation” value [2, 5] was 482.05%. It also gave an EC50 [2, 6] of 1240 nM.

For O=C(O)c1cc(N2CCC(CCN3CCOCC3)CC2)c2c(C3CCC3)nn(-c3ccccc3)c2n1 [compound 575, 3-cyclobutyl-4-{4-[2-(morpholin-4-yl)ethyl]piperidin-1-yl}-1-phenyl-1H-pyrazolo[3,4-b]pyridine-6-carboxylic acid], the EC50 [1] was 512 nM, the “% Activation” value [1, 7] was 268.4% and the EC50 [2] was 209 nM. The “% Activation” value [2, 5] was 431.9%.

In the case of O=C(O)c1cc(N2CCC(N3CCCCC3)CC2)c2c(C3CCC3)nn(-c3ccccc3)c2n1 [compound 576, 4-([1,4′-bipiperidin]-1′-yl)-3-cyclobutyl-1-phenyl-1H-pyrazolo[3,4-b]pyridine-6-carboxylic acid], the EC50 [1] is reported as 496 nM, the “% Activation” value [1, 7] is reported as 175.2% and the EC50 [2] is reported as 396 nM. For the same molecule, the “% Activation” value [2, 5] was 390.78%.

COCCC1CCN(c2cc(C(=O)O)nc3c2c(C(C)C)nn3-c2cccc(C)c2)CC1 [compound 228, 4-[4-(2-methoxyethyl)piperidin-1-yl]-1-(3-methylphenyl)-3-(propan-2-yl)-1H-pyrazolo[3,4-b]pyridine-6-carboxylic acid] was tested, and the “% Activation” value [1, 3] was 297.15%, the EC50 [1, 4] was 680 nM and the “% Activation” value [2, 5] was 475.1%. It also gave an EC50 [2, 6] of 397 nM.

In the case of O=C(O)c1cc(N2CCC3(CC2)CCN(C2CCC2)CC3)c2c(C3CCC3)nn(-c3ccc(F)cc3)c2n1 [compound 894, 3-cyclobutyl-4-(9-cyclobutyl-3,9-diazaspiro[5.5]undecan-3-yl)-1-(4-fluorophenyl)-1H-pyrazolo[3,4-b]pyridine-6-carboxylic acid], the “% Activation” value [1, 7] is reported as 164%, the EC50 [1, 8] is reported as 304 nM and the “% Activation” value [2, 5] is reported as 371.3%. It also gave an EC50 [2, 6] of 218 nM.

In the case of CN1CCC2(CC1)CCN(c1cc(C(=O)O)nc3c1c(C1CCC1)nn3-c1ccccc1)CC2 [compound 699, 3-cyclobutyl-4-(9-methyl-3,9-diazaspiro[5.5]undecan-3-yl)-1-phenyl-1H-pyrazolo[3,4-b]pyridine-6-carboxylic acid], the “% Activation” value [1, 7] is reported as 247.63%, the EC50 [1, 8] is reported as 622 nM and the “% Activation” value [2, 5] is reported as 432%. The EC50 [2, 6] was 169 nM.

In the case of CC(C)c1nn(-c2ccnc(N3CCOCC3)c2)c2nc(C(=O)O)cc(-c3ccc(N4CCOCC4)cc3)c12 [compound 201, 4-[4-(morpholin-4-yl)phenyl]-1-[2-(morpholin-4-yl)pyridin-4-yl]-3-(propan-2-yl)-1H-pyrazolo[3,4-b]pyridine-6-carboxylic acid], the “% Activation” value [1, 3] is reported as 251.3%, the EC50 [1, 4] is reported as 596 nM and the “% Activation” value [2, 5] is reported as 439.85%. It also gave an EC50 [2, 6] of 288 nM.

For O=C(O)c1cc(N2CCC(N3CCN(C4CC4)CC3)CC2)c2c(C3CCC3)nn(-c3ccc(F)cc3)c2n1 [compound 886, 3-cyclobutyl-4-[4-(4-cyclopropylpiperazin-1-yl)piperidin-1-yl]-1-(4-fluorophenyl)-1H-pyrazolo[3,4-b]pyridine-6-carboxylic acid], the “% Activation” value [1, 7] was 236.05%, the EC50 [1, 8] was 467 nM and the “% Activation” value [2, 5] was 551.77%. It also gave an EC50 [2, 6] of 511 nM.

From patent US9796711B2, “Substituted pyrazolo[3,4-b]pyridin-6-carboxylic acids and method of use” (AbbVie S.àr.l., priority 2015, dated 2017)
